Converted amounts (≈) assume the structure as drawn.
What was measured:
Format in all cases: functional
Pasteurella multocida = experiment: In vitro antibacterial activity against Pasteurella multocida 59A0067
Staphylococcus aureus = experiment: In vitro antibacterial activity against Staphylococcus aureus 01A0758
Escherichia coli = experiment: In vitro antibacterial activity against Escherichia coli 51A0150

Row | Compound | MIC (Pasteurella multocida) [µg/mL] | MIC (Staphylococcus aureus) [µg/mL] | MIC (Escherichia coli) [µg/mL]
1 | CC[C@H]1OC(=O)[C@H](C)[C@H]2OC3(CCN(c4ccc(C(=O)OCc5ccccc5)c(C(F)(F)F)c4)CC3)O[C@](C)(C[C@@H](C)CN(C)[C@H](C)[C@@H](O)[C@]1(C)O)[C@H](O[C@@H]1O[C@H](C)CC(N(C)C)[C@H]1O)[C@H]2C (stereo partly specified) | 0.39 (≈ 0.41 µM) | 0.78 (≈ 0.821 µM) | 3.13 (≈ 3.29 µM)
2 | CC[C@H]1OC(=O)[C@H](C)[C@H]2OC3(CCN(c4ccc([N+](=O)[O-])cn4)CC3)O[C@](C)(C[C@@H](C)CN[C@H](C)[C@@H](O)[C@]1(C)O)[C@H](O[C@@H]1O[C@H](C)CC(N(C)C)[C@H]1O)[C@H]2C (stereo partly specified) | 0.39 (≈ 0.5 µM) | 1.56 (≈ 2 µM) | 3.13 (≈ 4.01 µM)
3 | CC[C@H]1OC(=O)[C@H](C)[C@H]2OC3(CCN(c4ncc(C(=O)OCc5ccccc5)c(C(F)(F)F)n4)CC3)O[C@](C)(C[C@@H](C)CN[C@H](C)[C@@H](O)[C@]1(C)O)[C@H](O[C@@H]1O[C@H](C)CC(N(C)C)[C@H]1O)[C@H]2C (stereo partly specified) | > 50 | 0.78 (≈ 0.831 µM) | > 50
4 | CC[C@H]1OC(=O)[C@H](C)[C@H]2OC3(CCN(c4ccc(C(=O)OCc5ccccc5)cc4)CC3)O[C@](C)(C[C@@H](C)CN(C)[C@H](C)[C@@H](O)[C@]1(C)O)[C@H](O[C@@H]1O[C@H](C)CC(N(C)C)[C@H]1O)[C@H]2C (stereo partly specified) | 0.39 (≈ 0.442 µM) | 3.13 (≈ 3.55 µM) | 3.13 (≈ 3.55 µM)
5 | CC[C@H]1OC(=O)[C@H](C)[C@H]2OC3(CCN(c4ccc(C(F)(F)F)cn4)CC3)O[C@](C)(C[C@@H](C)CN[C@H](C)[C@@H](O)[C@]1(C)O)[C@H](O[C@@H]1O[C@H](C)CC(N(C)C)[C@H]1O)[C@H]2C (stereo partly specified) | 0.78 (≈ 0.971 µM) | 1.56 (≈ 1.94 µM) | 12.5 (≈ 15.6 µM)
6 | CC[C@H]1OC(=O)[C@H](C)C2OC3(CCNCC3)O[C@](C)(C[C@@H](C)CN(C)[C@H](C)[C@@H](O)[C@]1(C)O)[C@H](O[C@@H]1O[C@H](C)C[C@H](N(C)C)[C@H]1O)[C@H]2C | < 0.05 | 6.25 (≈ 9.3 µM) | 0.39 (≈ 0.58 µM)
7 | CC[C@H]1OC(=O)[C@H](C)[C@H]2OC3(CCN(c4ccc(N)cc4)CC3)O[C@](C)(C[C@@H](C)CN(C)[C@H](C)[C@@H](O)[C@]1(C)O)[C@H](O[C@@H]1O[C@H](C)CC(N(C)C)[C@H]1O)[C@H]2C (stereo partly specified) | 1.56 (≈ 2.04 µM) | 6.35 (≈ 8.32 µM) | 12.5 (≈ 16.4 µM)
8 | CC[C@H]1OC(=O)[C@H](C)[C@H]2OC3(CCN(c4ccc(S(=O)(=O)c5ccc(F)cc5)cc4)CC3)O[C@](C)(C[C@@H](C)CN(C)[C@H](C)[C@@H](O)[C@]1(C)O)[C@H](O[C@@H]1O[C@H](C)CC(N(C)C)[C@H]1O)[C@H]2C (stereo partly specified) | 1.56 (≈ 1.72 µM) | 3.13 (≈ 3.45 µM) | > 50
9 | CCOC(=O)c1ccc(N2CCC3(CC2)O[C@H]2[C@H](C)[C@@H](O[C@@H]4O[C@H](C)CC(N(C)C)[C@H]4O)[C@@](C)(C[C@@H](C)CN[C@H](C)[C@@H](O)[C@](C)(O)[C@@H](CC)OC(=O)[C@@H]2C)O3)nc1 (stereo partly specified) | 3.13 (≈ 3.88 µM) | 6.25 (≈ 7.74 µM) | 50 (≈ 62 µM)
10 | CC[C@H]1OC(=O)[C@H](C)[C@H]2OC3(CCN(c4ncccn4)CC3)O[C@](C)(C[C@@H](C)CN(C)[C@H](C)[C@@H](O)[C@]1(C)O)[C@H](O[C@@H]1O[C@H](C)CC(N(C)C)[C@H]1O)[C@H]2C (stereo partly specified) | 0.1 (≈ 0.133 µM) | 1.56 (≈ 2.08 µM) | 1.56 (≈ 2.08 µM)
11 | CC[C@H]1OC(=O)[C@H](C)[C@H]2OC3(CCN(c4cc(C)c([N+](=O)[O-])cn4)CC3)O[C@](C)(C[C@@H](C)CN[C@H](C)[C@@H](O)[C@]1(C)O)[C@H](O[C@@H]1O[C@H](C)CC(N(C)C)[C@H]1O)[C@H]2C (stereo partly specified) | 1.56 (≈ 1.96 µM) | 0.78 (≈ 0.982 µM) | 6.25 (≈ 7.87 µM)
12 | CC[C@H]1OC(=O)[C@H](C)[C@H]2OC3(CCN(c4ccc(C#N)cc4)CC3)O[C@](C)(C[C@@H](C)CN(C)[C@H](C)[C@@H](O)[C@]1(C)O)[C@H](O[C@@H]1O[C@H](C)CC(N(C)C)[C@H]1O)[C@H]2C (stereo partly specified) | 0.39 (≈ 0.505 µM) | 3.13 (≈ 4.05 µM) | 25 (≈ 32.3 µM)
13 | CC[C@H]1OC(=O)[C@H](C)[C@H]2OC3(CCN(c4ccc(C(=O)OCc5ccccc5)cc4F)CC3)O[C@](C)(C[C@@H](C)CN[C@H](C)[C@@H](O)[C@]1(C)O)[C@H](O[C@@H]1O[C@H](C)CC(N(C)C)[C@H]1O)[C@H]2C (stereo partly specified) | 3.13 (≈ 3.53 µM) | 0.39 (≈ 0.44 µM) | > 50
14 | CC[C@H]1OC(=O)[C@H](C)[C@H]2OC3(CCN(c4nc5ccccc5o4)CC3)O[C@](C)(C[C@@H](C)CN(C)[C@H](C)[C@@H](O)[C@]1(C)O)[C@H](O[C@@H]1O[C@H](C)CC(N(C)C)[C@H]1O)[C@H]2C (stereo partly specified) | 0.78 (≈ 0.989 µM) | 3.13 (≈ 3.97 µM) | 6.25 (≈ 7.92 µM)
15 | CC[C@H]1OC(=O)[C@H](C)[C@H]2OC3(CCN(c4ccccc4[N+](=O)[O-])CC3)O[C@](C)(C[C@@H](C)CN(C)[C@H](C)[C@@H](O)[C@]1(C)O)[C@H](O[C@@H]1O[C@H](C)CC(N(C)C)[C@H]1O)[C@H]2C (stereo partly specified) | 0.39 (≈ 0.492 µM) | 1.56 (≈ 1.97 µM) | 3.13 (≈ 3.95 µM)
16 | CC[C@H]1OC(=O)[C@H](C)[C@H]2OC3(CCN(c4ncc(C(=O)OCc5ccccc5)c(C(F)(F)F)n4)CC3)O[C@](C)(C[C@@H](C)CN(C)[C@H](C)[C@@H](O)[C@]1(C)O)[C@H](O[C@@H]1O[C@H](C)CC(N(C)C)[C@H]1O)[C@H]2C (stereo partly specified) | > 50 | 1.17 (≈ 1.23 µM) | > 50

Row | Compound | MIC (Pasteurella multocida) [µg/mL] | MIC (Staphylococcus aureus) [µg/mL] | MIC (Escherichia coli) [µg/mL]
17 | CC[C@H]1OC(=O)[C@H](C)[C@H]2OC3(CCN(c4nc(Cl)nc(-c5ccccc5)n4)CC3)O[C@](C)(C[C@@H](C)CN(C)[C@H](C)[C@@H](O)[C@]1(C)O)[C@H](O[C@@H]1O[C@H](C)CC(N(C)C)[C@H]1O)[C@H]2C (stereo partly specified) | > 50 | 1.56 (≈ 1.81 µM) | > 50
18 | CC[C@H]1OC(=O)[C@H](C)[C@H]2OC3(CCN(c4ncccc4[N+](=O)[O-])CC3)O[C@](C)(C[C@@H](C)CN[C@H](C)[C@@H](O)[C@]1(C)O)[C@H](O[C@@H]1O[C@H](C)CC(N(C)C)[C@H]1O)[C@H]2C (stereo partly specified) | 0.2 (≈ 0.256 µM) | 0.78 (≈ 1 µM) | 6.25 (≈ 8.01 µM)
19 | CC[C@H]1OC(=O)[C@H](C)[C@H]2OC3(CCN(c4ccc(NC(=O)c5ccccc5)cc4)CC3)O[C@](C)(C[C@@H](C)CN(C)[C@H](C)[C@@H](O)[C@]1(C)O)[C@H](O[C@@H]1O[C@H](C)CC(N(C)C)[C@H]1O)[C@H]2C (stereo partly specified) | 1.56 (≈ 1.8 µM) | 12.5 (≈ 14.4 µM) | 50 (≈ 57.7 µM)
20 | CC[C@H]1OC(=O)[C@H](C)[C@H]2OC3(CCN(c4nccs4)CC3)O[C@](C)(C[C@@H](C)CN(C)[C@H](C)[C@@H](O)[C@]1(C)O)[C@H](O[C@@H]1O[C@H](C)CC(N(C)C)[C@H]1O)[C@H]2C (stereo partly specified) | 0.39 (≈ 0.517 µM) | 3.13 (≈ 4.15 µM) | 3.13 (≈ 4.15 µM)
21 | CC[C@H]1OC(=O)[C@H](C)[C@H]2OC3(CCN(c4ccc([N+](=O)[O-])cn4)CC3)O[C@](C)(C[C@@H](C)CN(C)[C@H](C)[C@@H](O)[C@]1(C)O)[C@H](O[C@@H]1O[C@H](C)CC(N(C)C)[C@H]1O)[C@H]2C (stereo partly specified) | 0.39 (≈ 0.491 µM) | 3.13 (≈ 3.94 µM) | 6.25 (≈ 7.87 µM)
22 | CC[C@H]1OC(=O)[C@H](C)[C@H]2OC3(CCN(c4ccc(C(N)=O)cn4)CC3)O[C@](C)(C[C@@H](C)CN[C@H](C)[C@@H](O)[C@]1(C)O)[C@H](O[C@@H]1O[C@H](C)CC(N(C)C)[C@H]1O)[C@H]2C (stereo partly specified) | 0.2 (≈ 0.257 µM) | 1.56 (≈ 2.01 µM) | 6.25 (≈ 8.03 µM)
23 | CC[C@H]1OC(=O)[C@H](C)[C@H]2OC3(CCN(c4ccc(C#N)cn4)CC3)O[C@](C)(C[C@@H](C)CN[C@H](C)[C@@H](O)[C@]1(C)O)[C@H](O[C@@H]1O[C@H](C)CC(N(C)C)[C@H]1O)[C@H]2C (stereo partly specified) | 0.2 (≈ 0.263 µM) | 1.56 (≈ 2.05 µM) | 6.25 (≈ 8.22 µM)
24 | CC[C@H]1OC(=O)[C@H](C)[C@H]2OC3(CCN(c4nccc(C(F)(F)F)n4)CC3)O[C@](C)(C[C@@H](C)CN(C)[C@H](C)[C@@H](O)[C@]1(C)O)[C@H](O[C@@H]1O[C@H](C)CC(N(C)C)[C@H]1O)[C@H]2C (stereo partly specified) | 1.56 (≈ 1.91 µM) | 6.25 (≈ 7.64 µM) | 12.5 (≈ 15.3 µM)
25 | CC[C@H]1OC(=O)[C@H](C)[C@H]2OC3(CCN(c4cc(CO)cc(Cl)n4)CC3)O[C@](C)(C[C@@H](C)CN[C@H](C)[C@@H](O)[C@]1(C)O)[C@H](O[C@@H]1O[C@H](C)CC(N(C)C)[C@H]1O)[C@H]2C (stereo partly specified) | 0.2 (≈ 0.25 µM) | 1.56 (≈ 1.95 µM) | 0.78 (≈ 0.976 µM)
26 | CC[C@H]1OC(=O)[C@H](C)[C@H]2OC3(CCN(c4cncc(Cl)n4)CC3)O[C@](C)(C[C@@H](C)CN(C)[C@H](C)[C@@H](O)[C@]1(C)O)[C@H](O[C@@H]1O[C@H](C)CC(N(C)C)[C@H]1O)[C@H]2C (stereo partly specified) | 0.39 (≈ 0.497 µM) | 1.56 (≈ 1.99 µM) | 6.25 (≈ 7.97 µM)
27 | CC[C@H]1OC(=O)[C@H](C)[C@H]2OC3(CCN(c4ccc(C(=O)O)c(C(F)(F)F)c4)CC3)O[C@](C)(C[C@@H](C)CN(C)[C@H](C)[C@@H](O)[C@]1(C)O)[C@H](O[C@@H]1O[C@H](C)CC(N(C)C)[C@H]1O)[C@H]2C (stereo partly specified) | 3.13 (≈ 3.64 µM) | 25 (≈ 29.1 µM) | 12.5 (≈ 14.5 µM)
28 | CC[C@H]1OC(=O)[C@H](C)[C@H]2OC3(CCN(c4ccc(C(=O)N(C)c5ccncc5)cc4F)CC3)O[C@](C)(C[C@@H](C)CN(C)[C@H](C)[C@@H](O)[C@]1(C)O)[C@H](O[C@@H]1O[C@H](C)CC(N(C)C)[C@H]1O)[C@H]2C (stereo partly specified) | 0.2 (≈ 0.222 µM) | 3.13 (≈ 3.48 µM) | 1.56 (≈ 1.73 µM)
29 | CC[C@H]1OC(=O)[C@H](C)[C@H]2OC3(CCN(c4cc(OC)nc(OC)n4)CC3)O[C@](C)(C[C@@H](C)CN(C)[C@H](C)[C@@H](O)[C@]1(C)O)[C@H](O[C@@H]1O[C@H](C)CC(N(C)C)[C@H]1O)[C@H]2C (stereo partly specified) | 0.39 (≈ 0.481 µM) | 1.56 (≈ 1.93 µM) | 6.25 (≈ 7.72 µM)
30 | CC[C@H]1OC(=O)[C@H](C)[C@H]2OC3(CCN(c4nccc(C(F)(F)F)n4)CC3)O[C@](C)(C[C@@H](C)CN[C@H](C)[C@@H](O)[C@]1(C)O)[C@H](O[C@@H]1O[C@H](C)CC(N(C)C)[C@H]1O)[C@H]2C (stereo partly specified) | 0.78 (≈ 0.97 µM) | 1.56 (≈ 1.94 µM) | 3.13 (≈ 3.89 µM)
31 | CC[C@H]1OC(=O)[C@H](C)[C@H]2OC3(CCN(c4ncc(C(=O)NCc5ccncc5)cn4)CC3)O[C@](C)(C[C@@H](C)CN(C)[C@H](C)[C@@H](O)[C@]1(C)O)[C@H](O[C@@H]1O[C@H](C)CC(N(C)C)[C@H]1O)[C@H]2C (stereo partly specified) | > 50 | 3.52 (≈ 3.98 µM) | > 50
32 | CC[C@H]1OC(=O)[C@H](C)[C@H]2OC3(CCN(c4ccc(C)nn4)CC3)O[C@](C)(C[C@@H](C)CN(C)[C@H](C)[C@@H](O)[C@]1(C)O)[C@H](O[C@@H]1O[C@H](C)CC(N(C)C)[C@H]1O)[C@H]2C (stereo partly specified) | 0.2 (≈ 0.262 µM) | 6.25 (≈ 8.18 µM) | 3.13 (≈ 4.1 µM)
